# How the values were obtained:
# Test in all cases: Antifungal activity, MIC by disc (diffusion) method
# A. fumigatus = type: cell-based; conditions: Aspergillus fumigatus, YMG agar, 24 hr at 28° C., read-out: MIC (minimum inhibitory concentration) A. fumigatus
# Method: (§1) Measurement Method of Antifungal Activity in Various Compounds
# (§2) The minimum inhibitory concentration (MIC) was measured by a disc method (diffusion method). The disc method is one kind of the diffusion method, and is a method in which filter paper (disc) impregnated with an antifungal substance at a given concentration is placed on an agar medium (test plate) coated with a test bacterium and cultivated. The disc absorbs water in the medium, diffuses the antifungal substance and forms a given concentration gradient. As a result, the test bacterium forms a growth inhibition zone (circle) in the periphery of the disc, and the level of sensitivity to the antifungal substance is determined from the diameter of the inhibition circle.
# (§3) Using the aforementioned method, MIC of various compounds was measured.
# (§4) i: In a 100 mL flask, 20 mL of YMG or Mueller Hinton medium is produced.
# (§5) ii: A loopful of the test bacterium is dissolved in the medium.
# (§6) iii: The medium is cultured at 200 rpm for 24 hr in a rotary shaker set to 28° C.
# (§7) i: In a 300 mL flask, 100 mL of YMG or Mueller Hinton agar medium (low melting point agar) is produced.
# (§8) ii: After cooling to 37° C.-40° C., preculture medium (1 mL) is added and the mixture is agitated.
# (§9) iii: The mixture is dispensed to a square petri dish (size: 100*150*17 mm) by 20 mL each.
# (§10) iv: The dish is stood at room temperature until the agar is solidified.
# (§11) i: The compound is diluted in ½ dilution series in 10 stages (timely changed according to compound), 50 μL of solution/pulp at each dilution stage is produced, the organic solvent is dried at room temperature and placed on a test plate.
# (§12) ii: After culturing T. rubrum for 48 hr and other test bacteria for 24 hr at 28° C. in an incubator, the size of the inhibition circle was measured.
# (§13) The medium composition for culture which was used for the aforementioned preculture is shown below.
# (§14) [Medium Compositions for Preculture and Test Plate]
# (§15) <<YMG Medium>>: For Fungus
# (§16) Agar, powder 0.8% * added only when producing test plate
# T. rubrum = type: cell-based; conditions: Trichophyton rubrum, YMG agar, 48 hr at 28° C., read-out: MIC (minimum inhibitory concentration) T. rubrum
# Method: as §1, §2, §3, §4, §5, §6, §7, §8, §9, §10, §11, §12, §13, §14, §15, §16
# T. mentagrophytes = type: cell-based; conditions: Trichophyton mentagrophytes, YMG agar, 24 hr at 28° C., read-out: MIC (minimum inhibitory concentration) T. mentagrophytes
# Method: as §1, §2, §3, §4, §5, §6, §7, §8, §9, §10, §11, §12, §13, §14, §15, §16
# Saccharomyces = type: cell-based; conditions: YMG agar, 24 hr at 28° C., read-out: MIC (minimum inhibitory concentration) Saccharomyces
# Method: as §1, §2, §3, §4, §5, §6, §7, §8, §9, §10, §11, §12, §13, §14, §15, §16
# C. parapsilosis = type: cell-based, Candida parapsilosis; conditions: Lodderomyces parapsilosis, YMG agar, 24 hr at 28° C., read-out: MIC (minimum inhibitory concentration) C. parapsilosis
# Method: as §1, §2, §3, §4, §5, §6, §7, §8, §9, §10, §11, §12, §13, §14, §15, §16
MIC (A. fumigatus) [µg/mL],MIC (T. rubrum) [µg/mL],MIC (T. mentagrophytes) [µg/mL],MIC (Saccharomyces) [µg/mL],MIC (C. parapsilosis) [µg/mL],Compound
8,2,2,8,8,CC1=NS(=O)(=O)Nc2ccccc21 [I-1k]
4,1,1,4,4,N#Cc1ccc2c(c1)C=NS(=O)(=O)O2 [I-1g]
4,1,1,4,4,O=[N+]([O-])c1cc(Cl)cc2c1OS(=O)(=O)N1OC21 (stereo not drawn) [II-1i]
4,1,1,4,4,O=S1(=O)N=C2C(=COc3ccc(F)cc32)C2ON21 (stereo not drawn) [II-6b]
8,2,2,8,8,O=S1(=O)N=C(CCc2ccc(Cl)cc2)C2ON21 (stereo not drawn) [II-4d]
8,2,2,8,8,CCCCCCCCN1CC(c2ccccc2)=NS1(=O)=O [I-3e]
4,1,1,4,4,O=S1(=O)Oc2c(Cl)cc(Cl)cc2C2ON21 (stereo not drawn) [II-1h]
8,2,2,8,8,COc1ccc2c(c1)C=NS(=O)(=O)O2 [I-1d]
4,1,1,4,4,COC(=O)c1ccc2c(c1)C1ON1S(=O)(=O)O2 (stereo not drawn) [II-1f]
4,1,1,4,4,O=S1(=O)N=Cc2cc(Br)ccc2O1 [I-1c]
16,2,2,16,16,CC1=CC(C)=NS(=O)(=O)N1 [I-2b]
4,1,1,4,4,O=S1(=O)N=Cc2cc(Cl)cc(Cl)c2O1 [I-1h]
8,2,2,8,8,O=S1(=O)N=C(c2ccccc2)c2cc(Cl)ccc2N1 [I-1l]
8,2,2,8,8,O=S1(=O)OCC2(c3ccc(Cl)cc3)ON21 (stereo not drawn) [II-3d]
4,1,1,4,4,O=S1(=O)Oc2ccc(Cl)cc2C2ON21 (stereo not drawn) [II-1b]
8,2,2,8,8,CC1=CC2(c3ccccc3)ON2S(=O)(=O)N1 (stereo not drawn) [II-2c]
16,4,4,16,16,O=S1(=O)N2OC2c2cccn21 (stereo not drawn) [II-5b]
8,2,2,8,8,CC12ON1S(=O)(=O)Nc1ccccc12 (stereo not drawn) [II-1k]
8,2,2,8,8,COc1ccc2c(c1)C1ON1S(=O)(=O)O2 (stereo not drawn) [II-1d]
4,1,1,4,4,N#Cc1ccc2c(c1)C1ON1S(=O)(=O)O2 (stereo not drawn) [II-1g]
8,2,2,8,8,CC1=NS(=O)(=O)N=C1 [I-4a]
4,1,1,4,4,O=S1(=O)N=C2C(=COc3ccccc32)C2ON21 (stereo not drawn) [II-6a]
8,2,2,8,8,O=S1(=O)N=CC(CCc2ccc(F)cc2)=N1 [I-4c]
4,1,1,4,4,O=[N+]([O-])c1ccc2c(c1)C1ON1S(=O)(=O)O2 (stereo not drawn) [II-1e]

# Reference: US10980813B2, “Antifungal composition” (SEED RESEARCH INSTITUTE CO., LTD., priority 2017, dated 2021)
